Assay results from paper PMC12174897, “Hitting Two Birds With One Stone: Dual Modulation of Brain Carbonic Anhydrases and Histone Deacetylases Boosts Memory Consolidation” (Archiv Der Pharmazie, 2025).

Tests used:
[1] = biological target: T1, hCA I (Homo sapiens, UniProt P00915); assay: stopped-flow CO2 hydrase assay, CA activation; format: biochemical; conditions: for K A hCA I: activation constant, mean from three assays, errors ±5%–10%
T1 construct: purchased

[2] = biological target: T2, hCA II (Homo sapiens, UniProt P00918); assay: stopped-flow CO2 hydrase assay, CA activation; format: biochemical; conditions: for K A hCA II: activation constant, mean from three assays, errors ±5%–10%
T2 construct: purchased

[3] = biological target: T3, hCA IV (Homo sapiens, UniProt P22748); assay: stopped-flow CO2 hydrase assay, CA activation; format: biochemical; conditions: for K A hCA IV: activation constant, mean from three assays, errors ±5%–10%
T3 construct: made in house
Method: (§1) . The potencies were reported as K A values in Table 1 and compared with the reference compound D‐Phe. AC50 curves are reported in the Supporting Information.
(§2) . The uncatalyzed rates were determined in the same manner and subtracted from the total observed rates. Stock solutions of the inhibitor (0.1 mM) were prepared in distilled–deionized water and dilutions up to 0.01 nM were done thereafter with the assay buffer. Inhibitor and enzyme solutions were preincubated together for 15 min at r.t. before the assay, to allow for the formation of the E–I complex. The inhibition constants were obtained by nonlinear least‐squares methods using PRISM 3 and the Cheng‐Prusoff equation [41] and represent the mean from at least three different determinations. Apart from commercial hCAs I and II, all CA isoforms were recombinant proteins obtained in house, as reported earlier.
as §2, with “prior to” for “before”, “least-squares” for “least‐squares”, “Cheng-Prusoff” for “Cheng‐Prusoff”, “[2]” for “[41]”

[4] = biological target: T4, hCA VA (Homo sapiens, UniProt P35218); assay: stopped-flow CO2 hydrase assay, CA activation; format: biochemical; conditions: for K A hCA VA: activation constant, mean from three assays, errors ±5%–10%
T4 construct: made in house
Method: as §1, §2
as §2, with “prior to” for “before”, “least-squares” for “least‐squares”, “Cheng-Prusoff” for “Cheng‐Prusoff”, “[2]” for “[41]”

[5] = biological target: T5, hCA VII (Homo sapiens, UniProt P43166); assay: stopped-flow CO2 hydrase assay, CA activation; format: biochemical; conditions: for K A hCA VII: activation constant, mean from three assays, errors ±5%–10%
T5 construct: made in house
Method: as §1, §2
as §2, with “prior to” for “before”, “least-squares” for “least‐squares”, “Cheng-Prusoff” for “Cheng‐Prusoff”, “[2]” for “[41]”

[6] = biological target: T6, hCA IX (Homo sapiens, UniProt Q16790); assay: stopped-flow CO2 hydrase assay, CA activation; format: biochemical; conditions: activation constant; mean from three assays, errors ±5%–10%
T6 construct: made in house

[7] = test system: HDAC activity of HeLa nuclear extract; assay: Fluor de Lys-Green HDAC assay kit, HDAC inhibition; format: biochemical
Method: HeLa nuclear extract, rich in HDAC activity, is included with the kit. Trichostatin A solution was used as a positive control and model inhibitor. Plates were read with excitation at 380 nm and emission at 440 nm on a TECAN Spark multimode microplate reader. Histone deacetylase activity was measured according to the manufacturer's instructions.
HeLa nuclear extract, rich in HDAC activity, is included with the kit. Trichostatin A solution was used as a positive control and model inhibitor. Plates were read with excitation at 380 nm and emission at 440 nm on a TECAN Spark® multimode microplate reader. Histone deacetylase activity was measured according to manufacturer's instructions.

[8] = test system: Male C57Bl6 mice; assay: Novel object recognition (NOR) paradigm, memory consolidation; format: in vivo; parameters: key to Discrimination index (DI): DI = (tN − tF)/(tN + tF); novel vs familiar exploration time; conditions: for Discrimination index (DI): 5 µL i.c.v., retention test 24 h, vehicle −0.057 ± 0.069; for percentage of time spent exploring familiar vs novel object, retention test: 5 µL i.c.v. immediately after acquisition, retention test 24 h later
Method: This set of experiments was designed to evaluate the impact of single reference compounds (D‐Phe and 19) as well as the dual acting (12 and 14) on recognition memory. These compounds were administered directly into the brain lateral ventricles immediately after the acquisition session to investigate their impact specifically on memory consolidation. […] Such a design avoids the use of amnestic drugs that could interfere with data interpretation and represents an advantage when studying the procognitive potential of novel compounds. The dose range and administration route were also chosen based on previous reports showing that the procognitive effects of CA and HDAC modulators rely on their action on centrally and not peripherally expressed enzymes. Moreover, the injection of the tested compounds directly into the lateral ventricles (i.c.v.) consents widespread drug distribution in the brain and at the same time minimizes potential interference of peripheral phenomena such as barriers crossing, protein binding, drug metabolism, that are highly influenced by specific drug characteristics such as size, solubility, charge. Therefore, the i.c.v. route represents an advantage in studies comparing the potency of compounds by ensuring precise control of drug concentrations in the target organ and excluding confounding factors related to peripheral pharmacokinetic mechanisms.
Figure 5 Dual modulation of CAs and HDACs potently boost recognition memory in mice. (A) Schematic drawing showing the sequence of the behavioral procedures: immediately after the acquisition phase mice received infusions (5 µL) of solutions containing either vehicle, the CA activator D‐Phe, the HDAC inhibitor 19 dual acting compounds 12 and 14 at 0.5, 5, or 50 nmol/µL concentrations. The retention test was performed 24 h later. (B) Percentages of time spent exploring the familiar (F) or novel (N) objects during the retention test. The dashed line indicates a theoretical means of 50%. Statistically significant differences determined by two‐way ANOVA and Bonferroni's MCT: ****p < 0.0001 F versus N. (C) Discrimination indexes calculated with the formula DI = (tN tF)/(tN + tF). Statistically significant differences determined by one‐way ANOVA and Bonferroni's MCT: *p < 0.05; **p < 0.01 versus vehicle‐treated group. In both graphics, data are expressed either as individual data points for each animal (scattered plot) znc means ± SEM represented by bar graphs. N = 6–9 animals by experimental group.
Male C57Bl6 mice were submitted to the stereotaxic surgery to implant a guide cannula into the brain lateral ventricles as described above. One week after the surgery, their behavior was assessed in an open‐field arena (60 × 70 cm and 30 cm high) constructed in white acrylic Plexiglass and placed in a sound‐attenuated room. The detailed experimental procedure is already published. The NOR protocol consists of three sessions: habituation, acquisition, and retention test separated by 24 h intertrial intervals. During habituation, the animals freely explored the empty arena for 10 min. Twenty‐four hours later, each animal was placed in the same position and facing the same direction into the test arena in the presence of two identical objects (gray plastic shapes such as cubes, cylinders, or pyramids 8 cm high) and left free to explore it for 5 min. […] The retention test session was performed 24 h after acquisition, during which, each mouse was again placed in the test arena for 5 min in the presence of one of the familiar object and a novel object. The position of the new objects (left/right) was randomized to prevent bias from order or place preference.

[9] = test system: CA activity in cortical and hippocampal brain homogenates; assay: Ex vivo CA activity in brain homogenates after i.c.v. infusion (stopped-flow); conditions: 50 nmol/µL, 5 µL i.c.v., 30 min after infusion; vehicle = 100%
Method: (§3) Specifically, mice were euthanized 30 min after the i.c.v. infusion, their brains were collected, and hippocampi and frontal cortices were immediately dissected on ice and then individually homogenized in 1 mL of ice‐cold 20 mM Hepes buffer (pH 7.5).
The overall catalytic activity of CAs (K cat) of each individual preparation was measured with a stopped flow spectrophotometric method monitoring the physiological CO2 hydration reaction catalyzed by these enzymes [30]
Animals were killed 30 min after drug infusion, and the brain structures were immediately dissected on ice and homogenized. CA activity was measured with a stopped‐flow method. The mean CA activity measured in the group of control mice treated with vehicle was taken as 100%, the activities measured for animals treated with compounds were normalized to this value. Data are expressed as means ± S.E.M. of six–nine mice per experimental group. One‐way ANOVA and Bonferroni MCT, **p < 0.01 versus vehicle.
In the infusion days, a stainless‐steel injection micro‐needle (outer diameter 0.25 mm) connected through a polyethylene catheter to a 1000 µL Hamilton precision syringe was inserted into the cannulae previously implanted and lowered into the lateral cerebral ventricle (DV 2.4 mm). Then, 5 µL of a solution containing the testing compounds or vehicle were delivered using an infusion pump at 1 µL/min flow. The needle was left in place for one additional minute after each infusion to avoid efflux. Thirty minutes after drug injections, the animals were euthanized, their brain immediately removed, the cortices and hippocampi were rapidly dissected on ice, weighted, and stored at –80°C until use.
Animals pertaining to the control group received infusions of vehicle (physiological saline containing 1% DMSO (v/v)).
Brain tissues were homogenized in 1.0 mL of ice‐cold 20 mM Hepes buffer (pH 7.5). After centrifugation at 20,000g for 30 min, an Applied Photophysics stopped‐flow instrument was used for assaying the CA‐catalyzed CO2 hydration activity from the samples as previously described [23, 34]. […] The mean CA activity determined in the brain samples from the control group of mice treated with vehicle was set as 100% and all the individual calculated values were then expressed as a percentage of controls.

[10] = test system: HDAC activity in hippocampal and cortical brain homogenates; assay: Ex vivo HDAC residual activity in brain homogenates after i.c.v. infusion (fluorometric); conditions: 50 nmol/µL, 5 µL i.c.v., 30 min after infusion; vehicle = 100%
Method: as §3
Animals were killed 30 min after drug infusion, and the brain structures were immediately dissected on ice and homogenized. HDAC activity was measured with the fluorometric method. The HDAC mean activity of the control group mice was taken as 100%, % of the activities measured for animals treated with compounds were normalized to this value. Data are expressed as means ± S.E.M. of 6–13 mice per experimental group. One‐way ANOVA and Bonferroni MCT, ****p < 0.0001 versus vehicle‐treated group. […]
The residual enzymatic activity in brain tissues was measured using Fluor de Lys‐Green HDAC fluorometric activity assay kit purchased from Enzo Life Sciences (Farmingdale, NY). […] Measurements were performed using a TECAN Spark multimode microplate reader, set to a wavelength of 280 nm. Once the absorbance was measured, the concentration of the enzyme HDAC contained in the brain homogenates was calculated according to Lambert‐Beer's law. […] Fluorescence was measured at 380 nm and detected at 440 nm. Each test included a blank as a reference for minimal fluorescence, containing only buffer and substrate, thus lacking any protein component [49, 50]. […]

[11] = mean from three assays, errors 5%–10%
[12] = supplement InChI file, given as KI

T3 sequence (P22748 19-312): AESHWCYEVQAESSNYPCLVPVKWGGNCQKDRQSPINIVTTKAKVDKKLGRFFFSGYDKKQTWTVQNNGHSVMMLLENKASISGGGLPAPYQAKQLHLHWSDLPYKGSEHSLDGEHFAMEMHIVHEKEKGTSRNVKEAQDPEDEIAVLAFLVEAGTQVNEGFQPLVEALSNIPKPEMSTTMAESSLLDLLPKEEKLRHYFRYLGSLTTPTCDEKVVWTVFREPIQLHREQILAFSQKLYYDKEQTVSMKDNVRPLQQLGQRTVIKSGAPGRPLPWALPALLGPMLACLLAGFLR
T5 sequence (P43166 whole entry): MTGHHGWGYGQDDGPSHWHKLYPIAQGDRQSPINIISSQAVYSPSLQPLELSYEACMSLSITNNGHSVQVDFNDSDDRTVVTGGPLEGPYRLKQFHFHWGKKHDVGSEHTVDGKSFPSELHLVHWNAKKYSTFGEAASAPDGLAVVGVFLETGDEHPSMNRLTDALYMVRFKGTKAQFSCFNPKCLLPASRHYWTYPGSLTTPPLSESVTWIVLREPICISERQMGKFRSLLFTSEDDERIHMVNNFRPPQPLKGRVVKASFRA
T1 sequence (P00915 whole entry): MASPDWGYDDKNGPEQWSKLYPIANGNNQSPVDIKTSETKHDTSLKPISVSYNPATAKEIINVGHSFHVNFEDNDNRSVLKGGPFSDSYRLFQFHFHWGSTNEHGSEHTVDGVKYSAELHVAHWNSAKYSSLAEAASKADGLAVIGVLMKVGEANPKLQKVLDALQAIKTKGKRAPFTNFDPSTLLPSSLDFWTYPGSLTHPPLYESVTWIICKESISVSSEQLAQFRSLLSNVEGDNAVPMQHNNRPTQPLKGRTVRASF
T4 sequence (P35218 39-305): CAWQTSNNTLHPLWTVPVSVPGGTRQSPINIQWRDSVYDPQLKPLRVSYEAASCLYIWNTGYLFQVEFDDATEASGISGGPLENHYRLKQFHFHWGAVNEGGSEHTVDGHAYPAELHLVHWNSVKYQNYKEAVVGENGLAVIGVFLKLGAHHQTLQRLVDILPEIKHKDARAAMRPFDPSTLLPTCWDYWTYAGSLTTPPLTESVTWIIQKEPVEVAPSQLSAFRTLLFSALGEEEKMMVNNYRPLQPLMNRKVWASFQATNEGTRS

SMILES | K A hCA I [1] [µM] | K A hCA II [2] [µM] | K A hCA IV [3] [µM] | K A hCA VA [4] [µM] | K A hCA VII [5] [µM] | K A hCA IX [6] [µM] | EC50 [7, 11] [µM] | Discrimination index (DI) ([8]; 0.5 nmol/µL) | Discrimination index (DI) ([8]; 5 nmol/µL) | percentage of time spent exploring familiar vs novel object, retention test ([8]; 5 nmol/μL) | Discrimination index (DI) ([8]; 50 nmol/µL) | percentage of time spent exploring familiar vs novel object, retention test ([8]; 50 nmol/μL) | CA activity (%) in cortical homogenates versus vehicle [9] | CA activity (%) in hippocampal homogenates versus vehicle [9] | further results
Nc1ccccc1NC(=O)c1ccc(NC(=O)NCCc2c[nH]cn2)cc1.O=C(O)C(F)(F)F [Compound 12, 2‐(4‐{3‐[2‐(1H‐imidazol‐4‐yl)ethyl]ureido}benzamido)benzenaminium 2,2,2‐trifluoroacetate] | 75.4 | 66.8 | 23.0 | > 10000 | 32.0 | 68.8 | 2.8 | −0.077 ± 0.078 | 0.288 ± 0.110 | spent significantly more time exploring the novel object | 0.313 ± 0.173 | spent significantly more time exploring the novel object | significantly increased | significantly increased | –
Nc1cc(F)ccc1NC(=O)c1ccc(NC(=O)NCCc2c[nH]cn2)cc1.[O-][Cl+3]([O-])([O-])O.[O-][Cl+3]([O-])([O-])O [Compound 14, 4‐{3‐[2‐(1H‐Imidazol‐4‐yl)Ethyl]Ureido}‐N‐(2‐Amino‐4‐Fluorophenyl)Benzamide Diperchlorate] | 53.8 | 49.5 | 49.1 | 37.9 | 26.1 | > 10000 | 5.3 | −0.026 ± 0.274 | 0.317 ± 0.132 | spent significantly more time exploring the novel object | 0.224 ± 0.223 | spent significantly more time exploring the novel object | significantly increased | significantly increased | fold more potent activator of hCA I ([1]; K A of 14 compared with 12): 1.4 fold; fold more potent activator of hCA II ([2]; K A of 14 compared with 12): 1.3 fold; fold more potent activator of hCA VII ([5]; K A of 14 compared with 12): 1.2 fold
Nc1ccccc1NC(=O)c1ccc(NCC(=O)NCCc2ccccc2)cc1 [Compound 19, N‐(2‐Aminophenyl)‐4‐{[2‐Oxo‐2‐(Phenethylamino)Ethyl]Amino}Benzamide] | – | – | > 10000 | > 10000 | > 10000 | – | 14.2 | – | – | – | – | promnesic effect | no differences were observed | no differences were observed | activation constant KA [3, 12]: > 10 mM; KA (activation constant) [4, 12]: > 10 mM; activation constant KA [5, 12]: > 10 mM; HDAC residual activity (%) in cortical homogenates versus vehicle [10]: significant reduction; HDAC residual activity (%) in hippocampal homogenates versus vehicle [10]: significant reduction
N[C@H](Cc1ccccc1)C(=O)O [D‐Phe, reference compound] | 86.0 | 0.035 | 49.3 | – | – | – | – | – | – | – | – | promnesic effect | significantly increased | significantly increased | –
CC(/C=C/C(=O)NO)=C\[C@@H](C)C(=O)c1ccc(N(C)C)cc1 [Trichostatin A, reference compound] | – | – | – | – | – | – | – | – | – | – | – | – | – | – | EC50 ([7]; reference inhibitor): 0.0018 µM
